Inhibition and activation data for 20 compounds are collected here from US8148373B2, “Compounds” (AstraZeneca AB, priority 2008, dated 2012).

What is called inhibition is the relative decrease from the control value, in per cent.

Test [1] has as its target T1, human muscarinic acetylcholine M3 receptor (M3-ACh) (Homo sapiens, UniProt P20309).
T1 construct: expressed in transfected cells; host or cells: CHO-K1 (Chinese Hamster Ovary) cell membranes
As to the kind of experiment: Muscarinic 3 Receptor Binding Assay, % inhibition specific binding at 1 μM. To be noted: 1 μM compound, % inhibition specific [3H]-NMS binding. The method, boiled down: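 Competition binding of 0.1 nM [3H]NMS to membranes from CHO-K1 cells expressing human M3, SPA format, with compound at 1 μM in 20 mM HEPES pH 7.4, 5 mM MgCl2, 1% DMSO. Incubated 16 h at room temperature; non-specific binding defined by 1 μM atropine; value is % inhibition of specific binding.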

Test [2] deals with T2, Adrenergic β2 (H292 cells) (Homo sapiens, UniProt P07550).
T2 construct: endogenous in cells; host or cells: H292 cells
Description: Adrenergic β2 Mediated cAMP Production, single concentration 1 μM. The format is cell-based. The note with it: NCI-H292, 1 μM compound, percentage of the maximum response generated by 1E-07M formoterol, read-out: β2 (% effect at 1 μM). The method, boiled down:
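H292 cells were plated overnight, pre-treated with 300 μM rolipram for 10 min, then exposed to compound at 1 μM final (1% DMSO) for 60 min at room temperature. cAMP in the lysates was measured by AlphaScreen against a standard curve and expressed as % of the maximal response to 1E-07M formoterol.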

T1 sequence (P20309 whole entry): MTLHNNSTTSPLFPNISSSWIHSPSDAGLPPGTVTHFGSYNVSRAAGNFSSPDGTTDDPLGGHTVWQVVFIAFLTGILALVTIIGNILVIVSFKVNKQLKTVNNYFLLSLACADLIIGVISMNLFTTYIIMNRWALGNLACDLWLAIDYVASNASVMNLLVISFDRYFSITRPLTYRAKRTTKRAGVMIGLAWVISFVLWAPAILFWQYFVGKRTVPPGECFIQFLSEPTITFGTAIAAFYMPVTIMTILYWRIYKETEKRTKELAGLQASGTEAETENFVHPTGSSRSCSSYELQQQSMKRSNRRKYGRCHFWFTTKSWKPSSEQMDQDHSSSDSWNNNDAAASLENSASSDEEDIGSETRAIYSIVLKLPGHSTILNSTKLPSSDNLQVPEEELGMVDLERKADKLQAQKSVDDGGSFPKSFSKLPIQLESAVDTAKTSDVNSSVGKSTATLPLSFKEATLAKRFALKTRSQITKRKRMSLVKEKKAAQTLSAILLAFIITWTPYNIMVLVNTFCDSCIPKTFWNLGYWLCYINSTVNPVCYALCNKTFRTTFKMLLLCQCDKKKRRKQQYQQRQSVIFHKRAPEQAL
T2 sequence (P07550 whole entry): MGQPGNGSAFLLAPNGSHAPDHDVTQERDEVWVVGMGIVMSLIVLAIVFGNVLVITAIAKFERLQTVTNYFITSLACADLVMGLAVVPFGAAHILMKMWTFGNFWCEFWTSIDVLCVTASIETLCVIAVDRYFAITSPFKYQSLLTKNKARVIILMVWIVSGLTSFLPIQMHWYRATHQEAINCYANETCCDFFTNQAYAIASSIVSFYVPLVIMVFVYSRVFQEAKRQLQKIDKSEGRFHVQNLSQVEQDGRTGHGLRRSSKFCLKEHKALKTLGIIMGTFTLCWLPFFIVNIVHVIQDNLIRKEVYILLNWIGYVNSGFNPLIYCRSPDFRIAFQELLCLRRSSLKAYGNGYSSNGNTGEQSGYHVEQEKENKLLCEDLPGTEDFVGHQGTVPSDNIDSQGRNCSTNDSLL

For the compound `O=C(CCc1cccs1)N1CCOC2(CCN(CCCCCCCCCNC[C@H](O)c3ccc(O)c4[nH]c(=O)sc34)CC2)C1` [Example 207, (R)-4-hydroxy-7-(1-hydroxy-2-(9-(4-(3-(thiophen-2-yl)propanoyl)-1-oxa-4,9-diazaspiro[5.5]undecan-9-yl)nonylamino)ethyl)benzo[d]thiazol-2(3H)-one], at 1 µM the inhibition in test [1] was 94%. In test [2], the activation at 1 µM was determined as 101%.

In the case of `Cc1cc(CC(=O)N2CCOC3(CCN(CCCCCCCCCNC[C@H](O)c4ccc(O)c5[nH]c(=O)sc45)CC3)C2)on1` [Example 208, (R)-4-hydroxy-7-(1-hydroxy-2-(9-(4-(2-(3-methylisoxazol-5-yl)acetyl)-1-oxa-4,9-diazaspiro[5.5]undecan-9-yl)nonylamino)ethyl)benzo[d]thiazol-2(3H)-one], the inhibition at 1 µM in test [1] amounted to 88%. In addition, the activation at 1 µM in test [2] came to 98%.

In test [1], `Cc1nc(C)c(CC(=O)N2CCOC3(CCN(CCCCCCCCCNC[C@H](O)c4ccc(O)c5[nH]c(=O)sc45)CC3)C2)s1` [Example 211, (R)-7-(2-(9-(4-(2-(2,4-dimethylthiazol-5-yl)acetyl)-1-oxa-4,9-diazaspiro[5.5]undecan-9-yl)nonylamino)-1-hydroxyethyl)-4-hydroxybenzo[d]thiazol-2(3H)-one] gave an inhibition at 1 µM of 68%. Further, the activation at 1 µM in test [2] is 91%.

Turning to `O=C(c1ccsc1Cl)N1CCOC2(CCN(CCCCCCCCCNC[C@H](O)c3ccc(O)c4[nH]c(=O)sc34)CC2)C1` [Example 212, (R)-7-(2-(9-(4-(2-chlorothiophene-3-carbonyl)-1-oxa-4,9-diazaspiro[5.5]undecan-9-yl)nonylamino)-1-hydroxyethyl)-4-hydroxybenzo[d]thiazol-2(3H)-one], the inhibition at 1 µM in test [1] was 88%. For the same compound, the activation at 1 µM in test [2] was found to be 93%.

With `CC(C)c1cc(C(=O)N2CCOC3(CCN(CCCCCCCCCNC[C@H](O)c4ccc(O)c5[nH]c(=O)sc45)CC3)C2)no1` [Example 214, (R)-4-hydroxy-7-(1-hydroxy-2-(9-(4-(5-isopropylisoxazole-3-carbonyl)-1-oxa-4,9-diazaspiro[5.5]undecan-9-yl)nonylamino)ethyl)benzo[d]thiazol-2(3H)-one], the inhibition at 1 µM in test [1] worked out at 91%. In addition, the activation at 1 µM in test [2] stood at 82%.

In the case of `Cc1nc2cc(C(=O)N3CCOC4(CCN(CCCCCCCCCNC[C@H](O)c5ccc(O)c6[nH]c(=O)sc56)CC4)C3)ccc2s1` [Example 215, (R)-4-hydroxy-7-(1-hydroxy-2-(9-(4-(2-methylbenzo[d]thiazole-5-carbonyl)-1-oxa-4,9-diazaspiro[5.5]undecan-9-yl)nonylamino)ethyl)benzo[d]thiazol-2(3H)-one], in test [1], 1 µM produced 94% inhibition. In test [2], the activation at 1 µM came out at 89%.

In turn, `CC(C)(C)c1nc(C(=O)N2CCOC3(CCN(CCCCCCCCCNC[C@H](O)c4ccc(O)c5[nH]c(=O)sc45)CC3)C2)cs1` [Example 216, (R)-7-(2-(9-(4-(2-tert-butylthiazole-4-carbonyl)-1-oxa-4,9-diazaspiro[5.5]undecan-9-yl)nonylamino)-1-hydroxyethyl)-4-hydroxybenzo[d]thiazol-2(3H)-one] displayed an inhibition at 1 µM in test [1] of 90%. In addition, the activation at 1 µM in test [2] came to 88%.

Regarding `Cc1cc(C(=O)N2CCOC3(CCN(CCCCCCCCCNC[C@H](O)c4ccc(O)c5[nH]c(=O)sc45)CC3)C2)sc1C` [Example 222, (R)-7-(2-(9-(4-(4,5-dimethylthiophene-2-carbonyl)-1-oxa-4,9-diazaspiro[5.5]undecan-9-yl)nonylamino)-1-hydroxyethyl)-4-hydroxybenzo[d]thiazol-2(3H)-one], in test [1], the inhibition at 1 µM turned out to be 91%. In test [2], the activation at 1 µM came to 87%.

In the case of `O=C(c1ccccc1)N1CCOC2(CCN(CCOc3ccc(CNC[C@H](O)c4ccc(O)c5[nH]c(=O)sc45)cc3)CC2)C1` [Example 223, (R)-7-(2-(4-(2-(4-benzoyl-1-oxa-4,9-diazaspiro[5.5]undecan-9-yl)ethoxy)benzylamino)-1-hydroxyethyl)-4-hydroxybenzo[d]thiazol-2(3H)-one], the inhibition at 1 µM in test [1] is 56%. Further, the activation at 1 µM in test [2] turned out to be 87%.

Take `O=C(CCCc1cccs1)N1CCOC2(CCN(CCOc3ccc(CNC[C@H](O)c4ccc(O)c5[nH]c(=O)sc45)cc3)CC2)C1` [Example 224, (R)-4-hydroxy-7-(1-hydroxy-2-(4-(2-(4-(4-(thiophen-2-yl)butanoyl)-1-oxa-4,9-diazaspiro[5.5]undecan-9-yl)ethoxy)benzylamino)ethyl) benzo[d]thiazol-2(3H)-one]: the inhibition at 1 µM in test [1] is 70%. In addition, in test [2], the activation at 1 µM stood at 89%.

The compound `Cn1cccc1C(=O)N1CCOC2(CCN(CCOc3ccc(CNC[C@H](O)c4ccc(O)c5[nH]c(=O)sc45)cc3)CC2)C1` [Example 225, (R)-4-hydroxy-7-(1-hydroxy-2-(4-(2-(4-(1-methyl-1H-pyrrole-2-carbonyl)-1-oxa-4,9-diazaspiro[5.5]undecan-9-yl)ethoxy)benzylamino)ethyl) benzo[d]thiazol-2(3H)-one] registered an inhibition at 1 µM in test [1] of 60%. In test [2], the activation at 1 µM is 74%.

`O=C(Cc1cccs1)N1CCOC2(CCN(CCOc3ccc(CNC[C@H](O)c4ccc(O)c5[nH]c(=O)sc45)cc3)CC2)C1` [Example 226, (R)-4-hydroxy-7-(1-hydroxy-2-(4-(2-(4-(2-(thiophen-2-yl)acetyl)-1-oxa-4,9-diazaspiro[5.5]undecan-9-yl)ethoxy)benzylamino)ethyl) benzo[d]thiazol-2(3H)-one] gave an inhibition at 1 µM in test [1] of 53%. Also, in test [2], the activation at 1 µM is 76%.

`O=C(Cc1ccccc1)N1CCOC2(CCN(CCOc3ccc(CNC[C@H](O)c4ccc(O)c5[nH]c(=O)sc45)cc3)CC2)C1` [Example 227, (R)-4-hydroxy-7-(1-hydroxy-2-(4-(2-(4-(2-phenylacetyl)-1-oxa-4,9-diazaspiro[5.5]undecan-9-yl)ethoxy)benzylamino)ethyl) benzo[d]thiazol-2(3H)-one] had an inhibition at 1 µM in test [1] of 48%. Moreover, the activation at 1 µM in test [2] worked out at 80%.

Regarding `O=C(CCc1ccccc1)N1CCOC2(CCN(CCOc3ccc(CNC[C@H](O)c4ccc(O)c5[nH]c(=O)sc45)cc3)CC2)C1` [Example 228, (R)-4-hydroxy-7-(1-hydroxy-2-(4-(2-(4-(3-phenylpropanoyl)-1-oxa-4,9-diazaspiro[5.5]undecan-9-yl)ethoxy)benzylamino)ethyl) benzo[d]thiazol-2(3H)-one], in test [1], the inhibition at 1 µM was determined as 22%. Also, the activation at 1 µM in test [2] amounted to 67%.

The compound `O=C(CCCc1ccccc1)N1CCOC2(CCN(CCOc3ccc(CNC[C@H](O)c4ccc(O)c5[nH]c(=O)sc45)cc3)CC2)C1` [Example 229, (R)-4-hydroxy-7-(1-hydroxy-2-(4-(2-(4-(4-phenylbutanoyl)-1-oxa-4,9-diazaspiro[5.5]undecan-9-yl)ethoxy)benzylamino)ethyl) benzo[d]thiazol-2(3H)-one] returned an inhibition at 1 µM in test [1] of 67%. The activation at 1 µM in test [2] turned out to be 83%.

In turn, `CC(C)(C(=O)N1CCOC2(CCN(CCOc3ccc(CNC[C@H](O)c4ccc(O)c5[nH]c(=O)sc45)cc3)CC2)C1)c1ccccc1` [Example 230, (R)-4-hydroxy-7-(1-hydroxy-2-(4-(2-(4-(2-methyl-2-phenylpropanoyl)-1-oxa-4,9-diazaspiro[5.5]undecan-9-yl)ethoxy)benzylamino)ethyl) benzo[d]thiazol-2(3H)-one] came in with an inhibition at 1 µM in test [1] of 31%. Also, the activation at 1 µM in test [2] stood at 70%.

Turning to `O=C(c1ccc(Cl)s1)N1CCOC2(CCN(CCOc3ccc(CNC[C@H](O)c4ccc(O)c5[nH]c(=O)sc45)cc3)CC2)C1` [Example 231, (R)-7-(2-(4-(2-(4-(5-chlorothiophene-2-carbonyl)-1-oxa-4,9-diazaspiro[5.5]undecan-9-yl)ethoxy)benzylamino)-1-hydroxyethyl)-4-hydroxybenzo[d] thiazol-2(3H)-one], the inhibition at 1 µM in test [1] came to 91%. For the same compound, in test [2], the activation at 1 µM came to 53%.

With `Cc1ccsc1C(=O)N1CCOC2(CCN(CCOc3ccc(CNC[C@H](O)c4ccc(O)c5[nH]c(=O)sc45)cc3)CC2)C1` [Example 232, (R)-4-hydroxy-7-(1-hydroxy-2-(4-(2-(4-(3-methylthiophene-2-carbonyl)-1-oxa-4,9-diazaspiro[5.5]undecan-9-yl)ethoxy)benzylamino)ethyl) benzo[d]thiazol-2(3H)-one], the inhibition at 1 µM in test [1] was found to be 56%. For the same compound, the activation at 1 µM in test [2] worked out at 83%.

Consider `O=C(Cc1ccsc1)N1CCOC2(CCN(CCOc3ccc(CNC[C@H](O)c4ccc(O)c5[nH]c(=O)sc45)cc3)CC2)C1` [Example 233, (R)-4-hydroxy-7-(1-hydroxy-2-(4-(2-(4-(2-(thiophen-3-yl)acetyl)-1-oxa-4,9-diazaspiro[5.5]undecan-9-yl)ethoxy)benzylamino)ethyl) benzo[d]thiazol-2(3H)-one], for which the inhibition at 1 µM in test [1] turned out to be 51%. For the same compound, the activation at 1 µM in test [2] was determined as 82%.

As to `Cc1ccoc1C(=O)N1CCOC2(CCN(CCOc3ccc(CNC[C@H](O)c4ccc(O)c5[nH]c(=O)sc45)cc3)CC2)C1` [Example 234, (R)-4-hydroxy-7-(1-hydroxy-2-(4-(2-(4-(3-methylfuran-2-carbonyl)-1-oxa-4,9-diazaspiro[5.5]undecan-9-yl)ethoxy)benzylamino)ethyl) benzo[d]thiazol-2(3H)-one], testing at 1 µM in test [1] gave an inhibition of 80%. Also, the activation at 1 µM in test [2] was found to be 78%.
